Values joined by “and” are separate entries in the source; they are usually repeats but may differ in a detail not shown here. Equal values may be shown once. Numbered stars: 1 amine (or outer) side, 2 acyl side, 3 side chain; on linkers, the order of the positions; unused ones are H or OH. Square brackets hold non-standard residues; d marks the D form. Peptide text beside a SMILES is read from it. Adipoyl = O=C(CCCCC(=O)[*:2])[*:1]; d(hPhe) = N[C@H](CCc1ccccc1)C(=O)O; hLeu = CC(C)CC[C@H](N)C(=O)O
Columns and labels:
[1] = tested on: souris femelles C57 BL/6JICO; assay: Contact hypersensitivity test to dinitrofluorobenzene (DNFB), anti-allergic activity, topical application (Example 6); assay type: in vivo; settings: for % Augment. O. Gauche / % Augment. O. Droite: increase of ear thickness; for % Augment. O. Gauche / % Suppress. O. Gauche: left ear; for % Augment. O. Droite / % Suppress. O. Droite: right ear; for % Suppress. O. Gauche / % Suppress. O. Droite: suppression versus control lot
From the text: Des souris femelles C57 BL/6JICO, âgées de 5 semaines sont réparties en dix lots de dix animaux (cinq par cage), avec libre accès à l'eau et à la nourriture, soumises à une photopériode de douze heures de lumière par vingt-quatre heures.
Les animaux des lots 1 à 6 reçoivent quotidiennement et par application topique sur la peau rasée du dos, les produits à étudier (conjugués 1 et 5 représentés par les composés P1 et P2 préparés selon les exemples 1 et 2), mis en solution dans du propylène glycol, sous un volume constant de 50 µl et cela pendant cinq jours consécutifs.
• Composé P1 - Lots 1, 2 et 3 - 2,5 µg, 0,5 µg et 0,1 µg /souris/jour respectivement. • Composé P2 - Lots 4, 5 et 6 - 2,5 µg, 0,5 µg et 0.1 µg /souris/jour respectivement.
Les animaux du lot 10 servent de témoins (ils reçoivent seulement, 50 µl de propylène glycol par application topique pendant cinq jours).
Au cinquième jour, trente minutes après la dernière application toutes les souris sont sensibilisées avec 25 µl de D N F B (2,4-dinitro-1-fluorobenzène (FLUKA CHEMIKA PURUM à 97 % lot n° 33820890)) à 2 % dans un mélange 4 pour 1 d'acétone (SDS réf 0510) et de trioléine (FLUKA) appliqué par voie topique sur la région dorsale de peau rasée.
Au sixième jour, on procède à une nouvelle sensibilisation par application de D N F B.
Au onzième jour, l'épaisseur des oreilles des souris, est mesurée à l'aide d'un micromètre (ROCH 0 à 25 mm au 1/100 mm) afin d'obtenir des valeurs de base, puis les oreilles sont stimulées par application topique de 20 µl de DNFB à 0,8 %.
Au douzième jour, l'épaisseur des oreilles est à nouveau mesurée. On établit la valeur moyenne de l'épaississement des oreilles pour les souris des lots qui ont reçu les produits à étudier, ainsi que pour les souris du lot témoin.
Le pourcentage de suppression éventuelle sera exprimé par le calcul suivant : (T-E)/(T)x100 [formula] avec T pour le pourcentage d'augmentation de l'épaisseur moyenne des oreilles du lot témoin et E pour celui des lots qui ont reçu les produits à étudier.

PGE2 = assay: Inhibition of PGE2 production by IL1-stimulated MRC5 fibroblasts, RIA (Example 7); assay type: cell-based, humaine
From the text: Mise en évidence de l'effet inhibiteur des conjugués 1 et 5 (composés P1 et P2) sur la production par des fibroblastes stimulés par l'IL 1, d'un métabolite de l'acide arachidonique, la PGE2.
Nous avons choisi d'utiliser la souche ATCC MRC5 entretenue au laboratoire de façon continue et déjà testée par Cannon et al. (J. Immunol., 1986). Après un repiquage, les fibroblastes sont cultivés dans des micropuits (plaque de 24 puits de 2 cm^2, Falcon). L'innoculum est de 30 000 cellules par puits; le milieu nutritif utilisé est composé de RPMI 1640 (90 %) et de sérum de veau foetal décomplémenté (SVF, 10 %). Le milieu est changé tous les deux jours jusqu'à confluence des cellules.
Les couches monocellulaires ainsi obtenues sont lavées puis préincubées pendant 24 heures dans du milieu frais ne contenant que 1 % de SVF. […] Après 20 minutes d'incubation en présence de ces composés, l'ILI recombinante humaine (Tebu, France) à la concentration de 5, 2,5 ou 0,5 ng/ml de milieu est mise en contact avec des cellules pendant 18 heures. A la fin de cette incubation les surnageants sont prélevés et congelés à - 80 ° C jusqu'à l'analyse. Les couches monocellulaires sont fixées au méthanol.
Le dosage RIA est effectué selon la méthode décrite par Dray et al. (Europ. J. Invest. 1975). 3 séries d'expériences en duplicate ont été réalisées pour chaque concentration de produit étudié et pour les contrôles. Les résultats sont exprimés en pg/µg d'ADN. L'effet inhibiteur est exprimé en pourcentage par rapport aux contrôles.
Afin d'éviter toute erreur possible due au comptage en microscopie optique, l'ADN a été dosé par méthode fluorimétrique selon le protocole décrit par Brunk et al. (Analytical Biochem., 1979).

souris = assay: Comparative DNFB contact hypersensitivity test, conjugate versus its peptide alone (Example 9); assay type: in vivo
From the text: La méthode utilisée est celle décrite précédemment dans l'exemple N° 4, hypersensibilité de contact induite chez la souris par la D N F B. • Produits étudiés Lot I : [formula] - Conjugué 1 représenté par le composé P3. Lot II : Me.Nle - Glu - His - D-homo-Phé - Arg - Trp - Gly - NH2 Lot T : Témoin = Acide trans-10-hydroxy-2-décénoïque.
Solvant : le propylène glycol précédemment employé comme témoin dans l'exemple 6.
Une mesure de l'activité du témoin sera effectuée pour chaque expérimentation. - Expérimentation et posologie
Témoin: 10 ng d' acide trans-10-hydroxy-2-décénoïque par souris et par jour.
Au cinquième jour, trente minutes après la dernière application toutes les souris sont sensibilisées avec 25 µl de D N F B (2.4-dinitro-1-fluorobenzène (FLUKA CHEMIKA PURUM à 97 % lot N° 33820890)) à 2 % dans un mélange 4 pour 1 d'acétone (SDS réf. 05510) et de trioléine (FLUKA) appliqué par voie topique sur la région dorsale de peau rasée. Au sixième jour, on procède à une nouvelle sensibilisation par application de D N F B. Au onzième jour, l'épaisseur des oreilles des souris, est mesurée à l'aide d'un micromètre (ROCH 0 à 25 mm au 1/100 mm) afin d'obtenir des valeurs de base, puis les oreilles sont stimulées par application topique de 20 µl de D N F B à 0,8 %. Au douzième jour, l'épaisseur des oreilles est à nouveau mesurée. On établit la valeur moyenne de l'épaississement des oreilles pour les souris des lots qui ont reçu les produits à étudier, ainsi que pour les souris du lot témoin.Le pourcentage de suppression éventuelle sera exprimé par la même équation que dans l'exemple 6.

[2] = 0,1 µg/souris/jour topical for 5 days in propylene glycol
[3] = 0,1 µg/souris/jour topical for 5 days
[4] = 0,5 µg/souris/jour topical for 5 days in propylene glycol
[5] = 0,5 µg/souris/jour topical for 5 days
[6] = 2,5 µg/souris/jour topical for 5 days in propylene glycol
[7] = 2,5 µg/souris/jour topical for 5 days

CC(C)CC[C@H](NC(=O)CCCCC(=O)O)C(=O)N[C@@H](CCC(=O)O)C(=O)N[C@@H](Cc1c[nH]cn1)C(=O)N[C@H](CCc1ccccc1)C(=O)N[C@@H](CCCNC(=N)N)C(=O)N[C@@H](Cc1c[nH]c2ccccc12)C(=O)NCC(N)=O [Conjugué 1, Adipoyl - Me.Nle - Glu - His - D-homo-Phé - Arg - Trp - Gly - NH2] (Adipoyl-[hLeu]EH[d(hPhe)]RWG-NH2)
% Augment. O. Gauche [1, 2]: 21,50% | % Augment. O. Droite [1, 2]: 22,00% | % Suppress. O. Gauche [1, 3]: 62,93% | % Suppress. O. Droite [1, 3]: 62,39% | % Augment. O. Gauche [1, 4]: 19,00% | % Augment. O. Droite [1, 4]: 19,50% | % Suppress. O. Gauche [1, 5]: 67,24% | % Suppress. O. Droite [1, 5]: 66,66% | % Augment. O. Gauche [1, 6]: 17,50% | % Augment. O. Droite [1, 6]: 17,80% | % Suppress. O. Gauche [1, 7]: 69,80% | % Suppress. O. Droite [1, 7]: 69,57% | suppression de la réaction d'hypersensibilité cutanée induite par administration de D N F. B ([1]; matches the 2,5 µg/souris/jour lots of Table 1): ~69% | % inhib. (PGE2; IL1 0,5 ng, conjugate 10^-4 M): 60% | PGE2 (PGE2; IL1 0,5 ng, conjugate 10^-4 M): 113 ± 25 pg/mg d'ADN | % inhib. (PGE2; IL1 0,5 ng, conjugate 10^-5 M): 38% | PGE2 (PGE2; IL1 0,5 ng, conjugate 10^-5 M): 176 ± 37 pg/mg d'ADN | % inhib. (PGE2; IL1 0,5 ng, conjugate 10^-6 M): 19% | PGE2 (PGE2; IL1 0,5 ng, conjugate 10^-6 M): 231 ± 55 pg/mg d'ADN | % inhib. (PGE2; IL1 0,5 ng, conjugate 10^-7 M): 13% | PGE2 (PGE2; IL1 0,5 ng, conjugate 10^-7 M): 249 ± 60 pg/mg d'ADN | % inhib. (PGE2; IL1 0,5 ng, conjugate 10^-8 M): 10% | PGE2 (PGE2; IL1 0,5 ng, conjugate 10^-8 M): 258 ± 35 pg/mg d'ADN | PGE2 (PGE2; IL1 0,5 ng, conjugate 10^-9 M): 364 ± 56 pg/mg d'ADN | % inhib. (PGE2; IL1 2,5 ng, conjugate 10^-4 M): 53% | PGE2 (PGE2; IL1 2,5 ng, conjugate 10^-4 M): 179 ± 50 pg/mg d'ADN | % inhib. (PGE2; IL1 2,5 ng, conjugate 10^-5 M): 40% | PGE2 (PGE2; IL1 2,5 ng, conjugate 10^-5 M): 232 ± 45 pg/mg d'ADN | % inhib. (PGE2; IL1 2,5 ng, conjugate 10^-6 M): 24% | PGE2 (PGE2; IL1 2,5 ng, conjugate 10^-6 M): 292 ± 68 pg/mg d'ADN | % inhib. (PGE2; IL1 2,5 ng, conjugate 10^-7 M): 6% | PGE2 (PGE2; IL1 2,5 ng, conjugate 10^-7 M): 364 ± 68 pg/mg d'ADN | % inhib. (PGE2; IL1 2,5 ng, conjugate 10^-8 M): 13% | PGE2 (PGE2; IL1 2,5 ng, conjugate 10^-8 M): 335 ± 50 pg/mg d'ADN | % inhib. (PGE2; IL1 2,5 ng, conjugate 10^-9 M): 17% | PGE2 (PGE2; IL1 2,5 ng, conjugate 10^-9 M): 320 ± 43 pg/mg d'ADN | action inhibitrice (PGE2; Table 2, dose-effect relation, independent of IL1 concentration): bonne action inhibitrice | action à partir de 10^-7 M (PGE2; conjugate 10^-7 M and lower, at both IL1 concentrations (2,5 and 0,5 ng)): pas d'action | pouvoir inhibiteur de l'action de l'IL1 et de la PGE2 (PGE2; summary of Tables 2 and 3): possèdent un pouvoir inhibiteur

CC(C)CC[C@H](N)C(=O)N[C@@H](CCC(=O)O)C(=O)N[C@@H](Cc1c[nH]cn1)C(=O)N[C@H](CCc1ccccc1)C(=O)N[C@@H](CCCNC(=N)N)C(=O)N[C@@H](Cc1c[nH]c2ccccc12)C(=O)NCC(N)=O [Lot II, Me.Nle - Glu - His - D-homo-Phé - Arg - Trp - Gly - NH2] (H-[hLeu]EH[d(hPhe)]RWG-NH2)
suppression de l'hypersensibilité cutanée (souris; 0,1 µg/souris/jour): 47% | suppression de l'hypersensibilité cutanée (souris; 0,5 µg/souris/jour): ~60% | suppression de l'hypersensibilité cutanée (souris; 2,5 µg/souris/jour): ~69%

O=C(O)/C=C/CCCCCCCO [Lot T, Acide trans-10-hydroxy-2-décénoïque]
% Augment. O. Gauche (souris; 0,01 µg/souris/jour (10 ng) topical in propylene glycol, control substance, one measurement per experiment, left ear): 55,80% and 57,10% | % Augment. O. Droite (souris; 0,01 µg/souris/jour (10 ng) topical in propylene glycol, control substance, one measurement per experiment, right ear): 56,00% and 57,50% | effet suppressif de l'hypersensibilité cutanée (souris; in solution in propylene glycol, 10 ng per mouse per day): pas d'effet suppressif

Reference: patent EP0837881B1, “CONJUGATES OF alpha-MSH WITH A FATTY ACID, PREPARATION METHOD THEREFOR, AND USE THEREOF AS A DRUG” (INSTITUT EUROPEEN DE BIOLOGIE CELLULAIRE, priority 1995, dated 2004)
